Reference: patent US7723056B1, “Particles” (The University of Manchester, priority 1997, dated 2010)
Residues, ends and D or L forms follow the SMILES beside them. *: point of attachment. Myristoyl = CCCCCCCCCCCCCC(=O)*

Test system: erythrocytes
Assay: Haemoglobin assay of erythrocyte lysis
Format: cell-based, rats
Details: rat erythrocytes, no bacteria; haemoglobin at 578 nm; 100% = Triton X100
Method: Fresh rats blood was obtained with sodium heparin added to prevent clotting. Following centrifugation at 600 g for 10 mins and discarding of the supernatant, the pelleted erythrocytes were resuspended and washed three times in isotonic sucrose-glucose phosphate buffer (0.2M sucrose, 0.1M glucose 10 mM sodium phosphate, pH 7.3). Erythrocytes were used on the same day.
Leakage of haemoglobin from the erythrocytes (50 μl aliquots) was assayed spectrophotometrically at 578 nm against isotonic sucrose glucose phosphate buffer. Percentage lysis of the erythrocytes was established by construction of a standard curve. The supernatant from the centrifuged cells (3.2) represented 0% whereas 100% lysis obtained by incubation with 20 ul 10% v/v Triton X100 for 10 minutes.
Cultures were centrifuged at 600 g for 10 minutes and the supernatant examined spectrophotometrically as described above to assess erythrocyte lysis. In the presence of particles (but no bacteria) erythrocyte lysis varied between 0.88 and 0.61% with a mean of 0.73%. Addition of M-GALA alone to erythrocytes produced a lysis of 0.31%. No lysis occurred for erythrocytes left in buffer only.

Compound: CCCCCCCCCCCCCC(=O)N[C@@H](Cc1c[nH]c2ccccc12)C(=O)N[C@@H](CCC(=O)O)C(=O)N[C@@H](C)C(=O)N[C@@H](C)C(=O)N[C@@H](CC(C)C)C(=O)N[C@@H](C)C(=O)N[C@@H](CCC(=O)O)C(=O)N[C@@H](C)C(=O)N[C@@H](CC(C)C)C(=O)N[C@@H](C)C(=O)N[C@@H](CCC(=O)O)C(=O)N[C@@H](C)C(=O)N[C@@H](CC(C)C)C(=O)N[C@@H](C)C(=O)N[C@@H](CCC(=O)O)C(=O)N[C@@H](Cc1c[nH]cn1)C(=O)N[C@@H](CC(C)C)C(=O)N[C@@H](C)C(=O)N[C@@H](CCC(=O)O)C(=O)N[C@@H](C)C(=O)N[C@@H](CC(C)C)C(=O)N[C@@H](C)C(=O)N[C@@H](CCC(=O)O)C(=O)N[C@@H](C)C(=O)N[C@@H](CC(C)C)C(=O)N[C@@H](CCC(=O)O)C(=O)N[C@@H](C)C(=O)N[C@@H](CC(C)C)C(=O)N[C@@H](C)C(=O)N[C@@H](C)C(=O)O [M-GALA, N, Myristic-GALA] (Myristoyl-WEAALAEALAEALAEHLAEALAEALEALAA-OH)
- erythrocyte lysis: 0.31%
